Biological target: T1, AvPCP (Trichormus variabilis, UniProt Q3M7N3)
T1 sequence (Q3M7N3 1-234): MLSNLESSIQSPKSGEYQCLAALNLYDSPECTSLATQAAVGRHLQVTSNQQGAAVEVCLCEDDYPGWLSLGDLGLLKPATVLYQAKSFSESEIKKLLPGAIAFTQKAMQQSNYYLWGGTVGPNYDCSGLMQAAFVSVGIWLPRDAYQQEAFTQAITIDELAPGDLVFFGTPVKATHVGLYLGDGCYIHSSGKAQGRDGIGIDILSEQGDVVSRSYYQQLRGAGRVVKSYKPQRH
Test: hydrolysis of murein tripeptide to Ala-γ-D-Glu and DAP
Type: biochemical
Conditions: assay details only in Supplemental Data

C[C@H](N)C(=O)N[C@H](CCC(=O)N[C@@H](CCC[C@@H](N)C(=O)O)C(=O)O)C(=O)O [Ala-γ-D-Glu-DAP]
hydrolysis of murein tripeptide to Ala-γ-D-Glu and DAP: AvPCP can, indeed, hydrolyze Ala-γ-D-Glu-DAP to Ala-γ-D-Glu and DAP

Reference: publication PMC2667786 (Structure (London, England : 1993), 2009)
